ChEMBL document CHEMBL1146649, “New highly active taxoids from 9 beta-dihydrobaccatin-9,10-acetals. Part 5” (2004)
Values after ≈ are worked out from the molar mass of the structure shown.

Experiments:
[1] = tested on: PC-6; assay: Concentration that inhibited the growth of PC-6/VCR29-9 cells by 50% at 72 hr continuous exposure; assay type: functional; details: Homo sapiens, PC-6, 72 h
[2] = tested on: PC-12; assay: Concentration required to inhibit human PC-12 cell line growth by 50% at 72 hr continuous exposure; assay type: functional; details: PC-12, 72 h
[3] = tested on: PC-6; assay: Concentration required to inhibit human PC-6 cell line growth by 50% at 72 hr continuous exposure; assay type: functional; details: PC-6, 72 h
[4] = tested on: B16; assay: Effective dose of perorally administered compound against B16 melanoma BL6 cells implanted into mice; assay type: functional; details: Mus musculus, B16, po
[5] = tested on: PC-6; assay: Concentration required to inhibit human PC-6/VP1-1 cell line growth by 50% at 72 hr exposure; assay type: functional; details: PC-6, 72 h
[6] = tested on: Mus musculus; assay: Effective dose of intravenously administered compound against B16 melanoma BL6 cells implanted into mice; range is 3.5-5.3; assay type: functional; details: B16, iv
[7] = tested on: P388; assay: Concentration required to inhibit mouse P388 cell line growth by 50% at 72 hr continuous exposure; assay type: functional; details: P388, 72 h
[8] = tested on: Mus musculus; assay: Number of mice died at 11.9 mg/kg of peroral dose, among the total 6 mice tested; assay type: functional; details: route oral
[9] = tested on: Mus musculus; assay: Number of mice died at 26.7 mg/kg of peroral dose of compound among the total 6 mice tested; assay type: functional; details: route oral
[10] = tested on: Mus musculus; assay: Maximum rate of body weight loss after intravenous administration of 5.3 mg/kg of compound in mice; <0 indicates no weight loss; assay type: functional
[11] = tested on: Mus musculus; assay: Maximum rate of body weight loss after peroral administration of 11.9 mg/kg of compound in mice; assay type: functional; details: route oral
[12] = tested on: Mus musculus; assay: Maximum rate of body weight loss after peroral administration of 7.9 mg/kg of compound in mice; <0 indicates no weight loss; assay type: functional; details: route oral
[13] = tested on: Mus musculus; assay: Maximum rate of body weight loss after intravenous administration of 7.8 mg/kg of compound in mice; assay type: functional
[14] = tested on: Mus musculus; assay: Antitumor activity of 5.3 mg/kg of intravenously administered compound against B16 melanoma BL6 cells implanted into mice, value reported is percent compared to control; assay type: functional; details: route intravenous
[15] = tested on: Mus musculus; assay: Antitumor activity of 7.8 mg/kg of intravenously administered compound against B16 melanoma BL6 cells implanted into mice, value reported is percent compared to control; assay type: functional; details: route intravenous
[16] = tested on: Mus musculus; assay: Maximum rate of body weight loss after intravenous administration of 11.9 mg/kg of compound in mice; assay type: functional
[17] = tested on: B16; assay: Antitumor activity of 11.9 mg/kg of intravenously administered compound against B16 melanoma BL6 cells implanted into mice, value reported is percent compared to control; assay type: functional, Mus musculus; details: route intravenous
[18] = tested on: Mus musculus; assay: Number of mice died at 17.8 mg/kg of peroral dose among the total 6 mice tested; assay type: functional; details: route oral
[19] = tested on: Mus musculus; assay: Number of mice died at 7.9 mg/kg of peroral dose of compound among the total 6 mice tested; assay type: functional; details: route oral
[20] = tested on: Mus musculus; assay: Number of mice died at 11.9 mg/kg of intravenous dose, among the total 6 mice tested; assay type: functional
[21] = tested on: Mus musculus; assay: Antitumor activity of 7.9 mg/kg of perorally administered compound against B16 melanoma BL6 cells implanted into mice, value reported is percent compared to control; assay type: functional; details: route oral
[22] = tested on: Mus musculus; assay: Effective dose of perorally administered compound against B16 melanoma BL6 cells implanted into mice; range is 11.9-17.8; assay type: functional; details: B16, po
[23] = tested on: Mus musculus; assay: Maximum rate of body weight loss after peroral administration of 17.8 mg/kg of compound in mice; assay type: functional; details: route oral
[24] = tested on: PC-6; assay: Concentration required to inhibit human PC-6/VCR29-9 cell line growth by 50% at 72 hr exposure; assay type: functional; details: PC-6, 72 h
[25] = tested on: Mus musculus; assay: Effective dose of intravenously administered compound against B16 melanoma BL6 cells implanted into mice; range is 7.8-11.9; assay type: functional; details: B16, iv
[26] = tested on: Mus musculus; assay: Number of mice died at 7.8 mg/kg of intravenous dose of compound among the total 6 mice tested; assay type: functional
[27] = tested on: Mus musculus; assay: Number of mice died at 17.8 mg/kg of intravenous dose among the total 6 mice tested; assay type: functional
[28] = tested on: B16; assay: Antitumor activity of 11.9 mg/kg of perorally administered compound against B16 melanoma BL6 cells implanted into mice, value reported is percent compared to control; assay type: functional, Mus musculus; details: route oral
[29] = tested on: B16; assay: Antitumor activity of 17.8 mg/kg of perorally administered compound against B16 melanoma BL6 cells implanted into mice, value reported is percent compared to control; assay type: functional, Mus musculus; details: route oral
[30] = tested on: Mus musculus; assay: Number of mice died at 5.3 mg/kg of intravenous dose of compound among the total 6 mice tested; assay type: functional
[31] = tested on: Mus musculus; assay: Antitumor activity of 600 mg/kg of perorally administered compound against B16 melanoma BL6 cells implanted into mice, value reported is percent compared to control; assay type: functional; details: route oral
[32] = tested on: Mus musculus; assay: Maximum rate of body weight loss after peroral administration of 100 mg/kg of compound in mice; assay type: functional; details: route oral
[33] = tested on: Mus musculus; assay: Antitumor activity of 100 mg/kg of perorally administered compound against B16 melanoma BL6 cells implanted into mice, value reported is percent compared to control; assay type: functional; details: route oral
[34] = tested on: Mus musculus; assay: Number of mice died at 600 mg/kg of peroral dose of compound among the total 6 mice tested; assay type: functional; details: route oral
[35] = tested on: Mus musculus; assay: Number of mice died at 100 mg/kg of peroral dose of compound among the total 6 mice tested; assay type: functional; details: route oral
[36] = tested on: Mus musculus; assay: Maximum rate of body weight loss after peroral administration of 600 mg/kg of compound in mice; <0 indicates no body weight loss; assay type: functional; details: route oral

Which results are given for `CC(=O)O[C@@]12CO[C@@H]1CC[C@@]1(C)[C@@H]3O[C@H](CN4CCOCC4)O[C@@H]3C3=C(C)[C@@H](OC(=O)[C@H](O)[C@@H](NC(=O)OC(C)(C)C)c4cscn4)C[C@@](O)([C@@H](OCc4ccccc4)[C@@H]12)C3(C)C`?
GI50 [1]: 1.02 ng/mL (≈ 1.14 nM); GI50 [2]: 0.08 ng/mL (≈ 0.0891 nM); GI50 [3]: 0.65 ng/mL (≈ 0.724 nM); ED50 [4]: 7.9 mg/kg; GI50 [5]: 9.13 ng/mL (≈ 10.2 nM); ED50 [6]: 5.3 mg/kg; GI50 [7]: 0.03 ng/mL (≈ 0.0334 nM)

What does the source list for `CC(=O)O[C@@]12CO[C@@H]1CC[C@@]1(C)[C@@H]3O[C@H](CN4CCOCC4)O[C@@H]3C3=C(C)[C@@H](OC(=O)[C@H](O)[C@@H](NC(=O)OC(C)(C)C)C(C)(C)C)C[C@@](O)([C@@H](OCc4ccccc4)[C@@H]12)C3(C)C`?
Mortality [8]: 0; Mortality [9]: 6; BWLmax [10]: <0%; GI50 [2]: 0.13 ng/mL (≈ 0.149 nM); BWLmax [11]: 0.4%; BWLmax [12]: <0%; BWLmax [13]: <1.2%; IR [14]: 28.6%; GI50 [3]: 0.7 ng/mL (≈ 0.804 nM); IR [15]: 71.9%; BWLmax [16]: 10.5%; IR [17]: 93.8%; Mortality [18]: 0; Mortality [19]: 0; GI50 [5]: 5.56 ng/mL (≈ 6.38 nM); Mortality [20]: 0; IR [21]: 25.5%; GI50 [7]: 0.34 ng/mL (≈ 0.39 nM); ED50 [22]: 17.8 mg/kg; BWLmax [23]: 11.7%; GI50 [24]: 0.85 ng/mL (≈ 0.976 nM); ED50 [25]: 11.9 mg/kg; Mortality [26]: 0; Mortality [27]: 6; IR [28]: 63.4%; IR [29]: 90.3%; Mortality [30]: 0

With `CC(=O)O[C@@]12CO[C@@H]1C[C@H](O)[C@@]1(C)C(=O)[C@H](O)C3=C(C)[C@@H](OC(=O)[C@H](O)[C@@H](NC(=O)OC(C)(C)C)c4ccccc4)C[C@@](O)([C@@H](OCc4ccccc4)[C@H]21)C3(C)C` as the compound, how does the IR [31] read?
Its IR is 6.2%.

What about the BWLmax [32] of the same compound?
The BWLmax was under 0%.

And the GI50 [2]?
Its GI50 is 19.1 ng/mL (≈ 24.1 nM).

What about the IR [33] of the same compound?
Its IR is 95.1%.

And the GI50 [3]?
Its GI50 is 0.26 ng/mL (≈ 0.327 nM).

What about the GI50 [5] of the same compound?
The GI50 was 442 ng/mL (≈ 557 nM).

What about the GI50 [7] of the same compound?
Its GI50 is 0.78 ng/mL (≈ 0.982 nM).

And the Mortality [34]?
Its Mortality is 0.

What about the Mortality [35] of the same compound?
Its Mortality is 0.

What about the GI50 [24] of the same compound?
Its GI50 is 62.1 ng/mL (≈ 78.2 nM).

And the BWLmax [36]?
Its BWLmax is under 0%.
